Data from patent US6790838B2, “Combinations and methods for promoting in vivo liver cell proliferation and enhancing in vivo liver-directed gene transduction” (Amgen, Inc., priority 1999, dated 2004).

B1: KGF: full length recombinant keratinocyte growth factor polypeptide (AMGEN) (protein, UniProt P21781 1-194, looked up)
chain: MHKWILTWILPTLLYRSCFHIICLVGTISLACNDMTPEQMATNVNCSSPERHTRSYDYMEGGDIRVRRLFCRTQWYLRIDKRGKVKGTQEMKNNYNIMEIRTVAVGIVAIKGVESEFYLAMNKEGKLYAKKECNEDCNFKELILENHYNTYASAKWTHNGGEMFVALNQKGIPVRGKKTKKEQKTAHFLPMAIT
modifications: full-length

Experiments:
[1] = test system: hepatocytes; test: Hepatocyte proliferation in vivo by BrdU labeling after growth factor injection; parameters: species or system rat; conditions: for zones of the liver showing cell proliferation / time after injection having maximum liver cell proliferation: KGF 1 mg/kg or T3 4 mg/kg s.c.; for proportion of hepatocytes proliferating (BrdU labelled, S-phase) at 24 hours: T3 4 mg/kg and/or KGF 1 mg/kg s.c. at 0 hours, BrdU 1 hour before sacrifice; for dose producing maximal hepatocyte proliferation at 24 hours: dose response curves, subcutaneous injection, single factor; for time after injection having maximum liver cell proliferation: time course 6-30 hours
Description: Male Wistar rats weighing 200-250 grams were used. They were housed in a temperature and light controlled room (12 hour light/dark cycle) and were allowed water and food ad libitum.
T3 (Sigma, St. Louis, Mo. USA), 4 mg per kilogram of body weight was dissolved in 100 μl of 0.01 M NaOH in […] NaCl and administered by subcutaneous injection in the flank region of the animal.
Lyophilized KGF (full lenght recombinant KGF, AMGEN, Thousand Oaks, Calif.) 1 mg per kilogram of body weight was dissolved in 100 μl of a suitable buffer (0.01% by weight polyoxyethylenesorbitan monolaurate (TWEEN 20, Sigma) solution) and administered by subcutaneous injection in the flank region of the animal.
Measurement of liver cell proliferation was performed by BrdU labeling. BrdU (Sigma) (50 mg/kg dissolved in 800 μl of 0.9% NaCl) was injected intraperitoneally 1 hour prior to sacrifice. Livers of the animals were removed and fixed in 60% methanol, 30% chloroform and 10% glacial acetic acid before routine histological processing and embedding in wax blocks. The incorporation of BrdU into hepatic nuclei was detected in 4 μm thick sections using a mouse monoclonal antibody (Dako, Glostrup, Denmark), followed by a biotinilated rabbit anti-mouse secondary antibody (Dako). Visualization was achieved by the indirect peroxidase technique using diaminobenzidine tetrahydrochloride dihydrate (Aldrich Chemical, Milwaukee, Wis. USA) as a substrate. The labeling index and percentage of hepatic mitoses was determined by counting 2000 hepatocytes per section from consecutive light microscopy fields. See Forbes, et al., Gene Therapy 5:552-555 at 553 (1998)(incorporated herein by reference in its entirety).
Dose response curves were initially performed to identify the dose at which KGF and T3 independently cause maximum hepatocyte proliferation at 24 hours.
The times after injection having maximum liver cell proliferation (as measured by DNA synthesis), were also independently established for each of the individual factors. An injection corresponding to the dose producing maximal cell proliferation, as established in Example 1, was independently administered to 2 groups of subjects, one group for each factor. Dividing cells were labelled by administering BrdU 1 hour prior to sacrifice. At 6, 9, 12, 15, 18, 24, and 30 hours after injection three animals of each group were sacrificed and labelled liver cells counted.
While searching for a manner of producing a clinically acceptable level of liver cell proliferation without a need for prior injury to the liver, a series of experiments were performed whereby a combination of factors was administered to subjects and liver cell proliferation measured 24 hours after administration. […] factor combinations were independently tested, each combination in a different group of animals. A first group received 4 mg/kg T3 at 0 hours. A second group received 1 mg/kg KGF at 0 hours. A third group received 1 mg/kg KGF and 4 mg/kg T3 at 0 hours. A fourth group served as control and received the vehicle or diluent only.

[2] = test system: hepatocytes; assay type: in vivo, rat; conditions: for proportion of hepatocytes transfected/transduced (β-galactosidase): growth factor at hour 0, 1 ml retrovirus intraportally at 24 hours, killed 9 days after vector; for zones of the liver where transfected hepatocytes were found: intraportal vector at 24 hours, 9 days after vector
Description: Animals were anesthetized with isoflurane. A midline laparotomy was performed, the bowel was deflected to the left and wrapped in normal saline-soaked gauze. The portal vein and hepatic artery were clamped using micro-aneurysm clips, the portal vein was cannulated with a 26-gauge needle proximal to the clip and 1 ml of retroviral supernatant was injected over 5 minutes. Hemostasis was achieved by direct pressure to the portal vein and topical thrombin (Sigma) application. The clips were removed and the abdomen sutured, and the animals were allowed to recover in a warm, quite environment. […] For peripheral vein injection, 1 ml of the retrovirus/DOGS complex was injected via tail vein as a bolus.
Transduction of liver cells was measured by β-galactosidase activity. Animals were anesthetized and sacrificed by exsanguination. The liver was removed and frozen in liquid nitrogen. Ten-micron frozen sections were cut on to glass slides, fixed in a solution of 1.25% glutaraldehyde at 4° C., washed with phosphate buffered saline (PBS) then covered in X-gal (Gibco BRL, Grand Island, N.Y.) solution (1 mg/ml, pH 7.4) and incubated overnight at 37° C. Sections were then washed in PBS, counterstained lightly with eosin or carmalum stain, dehydrated and mounted in pertex (Cellpath, Hemel Hempstead, UK). The proportion of hepatocytes expressing nuclear β-galactosidase was calculated by counting 2000 hepatocytes per section from three separate areas.
At hour 0, several groups of four rats received an administration of either a single growth factor (either 4 mg/kg T3 or 1 mg/kg KGF) or the combination of 4 mg/kg T3/1 mg/kg KGF. A control group of three rats received injections of the growth factor diluents only. At 24 hours all rats were injected intraportally with 1 ml of retrovirus during temporary hepatic artery and portal vein occlusion. All rats were killed 9 days following vector administration.

[3] = test system: hepatocytes; conditions: retroviral vector given after growth factor administration; literature reports (Bosch 1996, Kosai 1998, Forbes 1998); cited from earlier work

Molecule | zones of the liver showing cell proliferation [1] | proportion of hepatocytes proliferating (BrdU labelled, S-phase) at 24 hours [1] | dose producing maximal hepatocyte proliferation at 24 hours [1] [mg/kg] | time after injection having maximum liver cell proliferation [1] [h] | proportion of hepatocytes transfected/transduced (β-galactosidase) [2] | zones of the liver where transfected hepatocytes were found [2] | liver cells (hepatocytes) transduced in vivo [3]
N[C@@H](Cc1cc(I)c(Oc2ccc(O)c(I)c2)c(I)c1)C(=O)O [T3, tri-iodothyronine, reference compound] | predominantly in the mid-zonal region | approximately 10% | 4 | 24 | approximately 1.2% | mostly found in the mid-zonal region | about 1.3%
hepatocyte growth factor: hepatocyte growth factor, cited from Kosai et al. | – | – | – | – | – | – | 1.3%
B1 | all zones of the liver | approximately 9% | 1 | 24 | approximately 1% | found in all zones of the liver | 2%
